Test results published in PubChem BioAssay AID1963825 (Molecular Pharmacology Branch, DTP, NCI, 2024).
pIC50: −log10 of the molar value.

Experiment: Anticancer human tumor 997537-175-T-J1-PDC patient-derived colon adenocarcinoma cell line growth inhibition [POLQ]
Conditions: 997537-175-T-J1-PDC complex spheroid viability, combination with POLQ inhibitors; for pIC50: curve of first compound; for viability, T/C: stronger effect = lower value
Outline: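 PDC + HUVEC + MSC complex spheroids; POLQ inhibitors ± partner drugs; top conc. at/near clinical Cmax, else 10 microM (SN-38 1 microM), half-log dilutions; 37 degrees C, 5% CO2.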

[1] = second compound 0.0316 µM, first compound 0.0316 µM
[2] = second compound 0.0316 µM, first compound 0.1 µM
[3] = second compound 0.0316 µM, first compound 0.316 µM
[4] = second compound 0.0316 µM, first compound 1 µM
[5] = second compound 0.0316 µM, first compound 3.16 µM
[6] = second compound 0.0316 µM, first compound 10 µM
[7] = second compound 0.1 µM, first compound 0.0316 µM
[8] = second compound 0.1 µM, first compound 0.1 µM
[9] = second compound 0.1 µM, first compound 0.316 µM
[10] = second compound 0.1 µM, first compound 1 µM
[11] = second compound 0.1 µM, first compound 3.16 µM
[12] = second compound 0.1 µM, first compound 10 µM
[13] = second compound 0.316 µM, first compound 0.0316 µM
[14] = second compound 0.316 µM, first compound 0.1 µM
[15] = second compound 0.316 µM, first compound 0.316 µM
[16] = second compound 0.316 µM, first compound 1 µM
[17] = second compound 0.316 µM, first compound 3.16 µM
[18] = second compound 0.316 µM, first compound 10 µM
[19] = second compound 1 µM, first compound 0.0316 µM
[20] = second compound 1 µM, first compound 0.1 µM
[21] = second compound 1 µM, first compound 0.316 µM
[22] = second compound 1 µM, first compound 1 µM
[23] = second compound 1 µM, first compound 3.16 µM
[24] = second compound 1 µM, first compound 10 µM
[25] = second compound 3.16 µM, first compound 0.0316 µM
[26] = second compound 3.16 µM, first compound 0.1 µM
[27] = second compound 3.16 µM, first compound 0.316 µM
[28] = second compound 3.16 µM, first compound 1 µM
[29] = second compound 3.16 µM, first compound 3.16 µM
[30] = second compound 3.16 µM, first compound 10 µM
[31] = second compound 10 µM, first compound 0.0316 µM
[32] = second compound 10 µM, first compound 0.1 µM
[33] = second compound 10 µM, first compound 0.316 µM
[34] = second compound 10 µM, first compound 1 µM
[35] = second compound 10 µM, first compound 3.16 µM
[36] = second compound 10 µM, first compound 10 µM
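Further: luminescence signal used as a surrogate for viable cells; spheroids exposed to drugs for seven days before readout.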

COc1cc2cc(C(=O)CCC(=O)O)sc2cc1OC + COC1C(OC(N)=O)C(O)C(Oc2ccc3c(O)c(NC(=O)c4ccc(O)c(CC=C(C)C)c4)c(=O)oc3c2C)OC1(C)C
pIC50 (second compound 0.0316 µM): < 5.00
pIC50 (second compound 0.1 µM): < 5.00
pIC50 (second compound 0.316 µM): < 5.00
pIC50 (second compound 1 µM): < 5.00
pIC50 (second compound 3.16 µM): < 5.00
pIC50 (second compound 10 µM): < 5.00
viability, T/C [1]: 95.1%
viability, T/C [2]: 98.6%
viability, T/C [3]: 88.1%
viability, T/C [4]: 92.5%
viability, T/C [5]: 89.7%
viability, T/C [6]: 80.3%
viability, T/C [7]: 94.3%
viability, T/C [8]: 96.3%
viability, T/C [9]: 87.5%
viability, T/C [10]: 93.5%
viability, T/C [11]: 99.1%
viability, T/C [12]: 92.2%
viability, T/C [13]: 101%
viability, T/C [14]: 108%
viability, T/C [15]: 99.9%
viability, T/C [16]: 96.2%
viability, T/C [17]: 86.2%
viability, T/C [18]: 91.8%
viability, T/C [19]: 100%
viability, T/C [20]: 98.4%
viability, T/C [21]: 104%
viability, T/C [22]: 93.5%
viability, T/C [23]: 100%
viability, T/C [24]: 90.4%
viability, T/C [25]: 96.2%
viability, T/C [26]: 101%
viability, T/C [27]: 96.5%
viability, T/C [28]: 101%
viability, T/C [29]: 97.3%
viability, T/C [30]: 105%
viability, T/C [31]: 97.2%
viability, T/C [32]: 89.6%
viability, T/C [33]: 95.5%
viability, T/C [34]: 104%
viability, T/C [35]: 94.8%
viability, T/C [36]: 84.1%

C=CC(=O)N1CCN(c2nc(=O)n(-c3c(C)ccnc3C(C)C)c3nc(-c4c(O)cccc4F)c(F)cc23)C(C)C1 (centres undefined) + COC1C(OC(N)=O)C(O)C(Oc2ccc3c(O)c(NC(=O)c4ccc(O)c(CC=C(C)C)c4)c(=O)oc3c2C)OC1(C)C
pIC50 (second compound 0.0316 µM): < 5.00
pIC50 (second compound 0.1 µM): < 5.00
pIC50 (second compound 0.316 µM): < 5.00
pIC50 (second compound 1 µM): < 5.00
pIC50 (second compound 3.16 µM): < 5.00
pIC50 (second compound 10 µM): < 5.00
viability, T/C [1]: 106%
viability, T/C [2]: 108%
viability, T/C [3]: 107%
viability, T/C [4]: 112%
viability, T/C [5]: 109%
viability, T/C [6]: 91.7%
viability, T/C [7]: 123%
viability, T/C [8]: 125%
viability, T/C [9]: 95.5%
viability, T/C [10]: 91.5%
viability, T/C [11]: 115%
viability, T/C [12]: 108%
viability, T/C [13]: 106%
viability, T/C [14]: 95.6%
viability, T/C [15]: 106%
viability, T/C [16]: 105%
viability, T/C [17]: 117%
viability, T/C [18]: 93.8%
viability, T/C [19]: 106%
viability, T/C [20]: 113%
viability, T/C [21]: 96.6%
viability, T/C [22]: 105%
viability, T/C [23]: 109%
viability, T/C [24]: 105%
viability, T/C [25]: 105%
viability, T/C [26]: 101%
viability, T/C [27]: 115%
viability, T/C [28]: 104%
viability, T/C [29]: 101%
viability, T/C [30]: 95.7%
viability, T/C [31]: 96.3%
viability, T/C [32]: 109%
viability, T/C [33]: 93%
viability, T/C [34]: 105%
viability, T/C [35]: 104%
viability, T/C [36]: 96.7%
